SMILES strings stand for the structures. In brackets after ≈: the same amount, converted by molar mass.

For orientation: MIC means the lowest concentration found to suppress growth.

Common to all, as to type: functional
For one test, the system named is Candida albicans. Nature of the test: Antifungal activity against Candida albicans ATCC 1600 assessed as inhibition of visible growth.
The next test relates to Staphylococcus aureus. As to the kind of experiment: Antibacterial activity against Staphylococcus aureus ATCC 25923 assessed as inhibition of visible growth.
A further test deals with Saccharomyces. As to the kind of experiment: Antifungal activity against Saccharomyces sake ATCC 26421 assessed as inhibition of visible growth.
The next test deals with Bacillus subtilis. Nature of the test: Antibacterial activity against Bacillus subtilis ATCC 6633 assessed as inhibition of visible growth.
In a further test the test system is Trichophyton rubrum. As to the kind of experiment: Antifungal activity against Trichophyton rubrum ATCC 10218 assessed as inhibition of visible growth.
The next test concerns Escherichia coli. As to the kind of experiment: Antibacterial activity against Escherichia coli ATCC 25922 assessed as inhibition of visible growth.
The subject of another test is Shigella flexneri. Nature of the test: Antibacterial activity against Shigella flexneri ATCC 12022 assessed as inhibition of visible growth.
Another test deals with Pseudomonas aeruginosa. As to the kind of experiment: Antibacterial activity against Pseudomonas aeruginosa ATCC 14502 assessed as inhibition of visible growth.
The next test has as its system Nannizzia gypsea. Nature of the test: Antifungal activity against Microsporum gypseum ATCC 14683 assessed as inhibition of visible growth.
The next test relates to Micrococcus luteus. Nature of the test: Antibacterial activity against Micrococcus luteus ATCC 9341 assessed as inhibition of visible growth.
Test [1] deals with Staphylococcus epidermidis. Nature of the test: Antibacterial activity against Staphylococcus epidermidis ATCC 12228 assessed as inhibition of visible growth.

Consider `CC(C)(C(=O)O)[C@@H]1CC[C@]2(C)[C@H](CC=C3[C@@H]4C[C@@](C)(C(=O)O)CC[C@]4(C)CC[C@]32C)[C@@]1(C)C(=O)O` [DYSOXYHAINIC ACID F], for which the MIC in the test with Candida albicans, in the test with Staphylococcus aureus, in the test with Saccharomyces, with Bacillus subtilis, in the test on Trichophyton rubrum and in the test on Escherichia coli was more than 50 µg/mL throughout. Also, the MIC (in the test on Shigella flexneri; in the test with Pseudomonas aeruginosa; in the test on Nannizzia gypsea; in the test on Micrococcus luteus; in [1]) was more than 50 µg/mL in each case.

`C=C(C)[C@@H]1CC[C@]2(C)[C@H](CC=C3[C@@H]4C[C@@](C)(C(=O)O)CC[C@]4(C)CC[C@]32C)[C@@]1(C)CCC(=O)OC` [DYSOXYHAINIC ACID G]: the MIC was more than 50 µg/mL with Candida albicans; more than 50 µg/mL in the test on Staphylococcus aureus; more than 50 µg/mL with Saccharomyces; 3.12 µg/mL (≈ 6.44 µM) in the test on Bacillus subtilis; more than 50 µg/mL with Trichophyton rubrum; more than 50 µg/mL in the test with Escherichia coli. In addition, the MIC in the test with Shigella flexneri is more than 50 µg/mL; in the test on Pseudomonas aeruginosa it was more than 50 µg/mL; in the test with Nannizzia gypsea, more than 50 µg/mL; in the test with Micrococcus luteus, 3.12 µg/mL (≈ 6.44 µM); in [1], 3.12 µg/mL (≈ 6.44 µM).

As for `C=C(C)[C@@H]1CC[C@]2(C)[C@H](CC[C@@H]3[C@H]4[C@H](C(C)(C)O)CC[C@]4(C)CC[C@]32C)[C@@]1(C)CCC(=O)O` [DYSOXYHAINIC ACID H], the MIC with Candida albicans was more than 50 µg/mL; with Staphylococcus aureus it was more than 50 µg/mL; in the test with Saccharomyces, more than 50 µg/mL; in the test on Bacillus subtilis it was 3.12 µg/mL (≈ 6.8 µM); with Trichophyton rubrum, more than 50 µg/mL; in the test on Escherichia coli, more than 50 µg/mL. The MIC in the test on Shigella flexneri was more than 50 µg/mL; with Pseudomonas aeruginosa, more than 50 µg/mL; with Nannizzia gypsea it was more than 50 µg/mL; with Micrococcus luteus it was 3.12 µg/mL (≈ 6.8 µM); in test [1], more than 50 µg/mL.

In the case of `CC1(C)CC[C@]2(C)CC[C@]3(C)C(=CC[C@@H]4[C@@](C)(CCC(=O)O)[C@H](C(C)(C)O)CC[C@]43C)[C@@H]2C1` [DYSOXYHAINIC ACID I], the MIC in the test with Candida albicans was more than 50 µg/mL; in the test on Staphylococcus aureus it was more than 50 µg/mL; in the test with Saccharomyces, more than 50 µg/mL; in the test on Bacillus subtilis, 1.56 µg/mL (≈ 3.4 µM); with Trichophyton rubrum, more than 50 µg/mL; in the test with Escherichia coli it was more than 50 µg/mL. Further, the MIC with Shigella flexneri is more than 50 µg/mL; in the test on Pseudomonas aeruginosa it was more than 50 µg/mL; in the test on Nannizzia gypsea it was more than 50 µg/mL; in the test on Micrococcus luteus it was more than 50 µg/mL; in test [1] it was 12.5 µg/mL (≈ 27.2 µM).

As to `CC1(C)CC[C@]2(C)CC[C@]3(C)C(=CC=C4[C@@](C)(CCC(=O)O)[C@H](C(C)(C)O)CC[C@]43C)[C@@H]2C1` [DYSOXYHAINIC ACID J], the minimum inhibitory concentration (MIC) in the test with Candida albicans, in the test with Staphylococcus aureus, in the test on Saccharomyces, with Bacillus subtilis, with Trichophyton rubrum and in the test with Escherichia coli was more than 50 µg/mL throughout. Further, the minimum inhibitory concentration (MIC) (in the test on Shigella flexneri; in the test on Pseudomonas aeruginosa; with Nannizzia gypsea; with Micrococcus luteus; in [1]) was more than 50 µg/mL each time.

Regarding `C=C(C)[C@@H]1CC[C@]2(C)[C@H](CC=C3[C@@H]4C[C@@](C)(C(=O)O)CC[C@]4(C)CC[C@]32C)[C@@]1(C)CCC(=O)O` [KOETJAPIC ACID], the MIC was more than 50 µg/mL in the test on Candida albicans; more than 50 µg/mL with Staphylococcus aureus; more than 50 µg/mL in the test on Saccharomyces; 6.25 µg/mL (≈ 13.3 µM) in the test with Bacillus subtilis; more than 50 µg/mL with Trichophyton rubrum; more than 50 µg/mL in the test with Escherichia coli. For the same compound, the MIC with Shigella flexneri was more than 50 µg/mL; with Pseudomonas aeruginosa, more than 50 µg/mL; with Nannizzia gypsea, more than 50 µg/mL; with Micrococcus luteus, more than 50 µg/mL; in test [1] it was 12.5 µg/mL (≈ 26.6 µM).

For the compound `C=CCc1ccc(O)c(-c2cc(CC=C)ccc2O)c1` [MAGNOLOL], the MIC is 25 µg/mL (≈ 93.9 µM) with Staphylococcus aureus; 12.5 µg/mL (≈ 46.9 µM) with Bacillus subtilis; more than 50 µg/mL in the test with Escherichia coli; more than 50 µg/mL with Shigella flexneri; more than 50 µg/mL in the test on Pseudomonas aeruginosa; 12.5 µg/mL (≈ 46.9 µM) with Micrococcus luteus. Besides, the MIC in [1] is 12.5 µg/mL (≈ 46.9 µM).

Regarding `COC(=O)C1=CC[C@@]23CC[C@@H]([C@@](C)(/C=C/C=C(\C)C(=O)O)OC2=O)[C@@]3(OC(C)=O)CC1` [PSEUDOLARIC ACID B], the MIC in the test with Candida albicans is 6.25 µg/mL (≈ 14.5 µM); with Saccharomyces, 12.5 µg/mL (≈ 28.9 µM); in the test with Trichophyton rubrum, 25 µg/mL (≈ 57.8 µM); in the test with Nannizzia gypsea it was 12.5 µg/mL (≈ 28.9 µM).
